# Measured values from ChEMBL document CHEMBL3102715, “Synthesis and anti-rhinovirus activity of novel 3-[2-(pyridinyl)vinyl]substituted -2H-chromenes and -4H-chromen-4-ones” (Bioorg Med Chem, 2014).
# pIC50: −log10 of the molar value. Active and inactive are the calls of the source. No cut-off for these calls is given here.
# Assays:
# [1] = system: rhinovirus A1B; experiment: Antiviral activity against HRV 1B infected in human HeLa cells assessed as reduction in plaque number after 3 days by neutral red assay; type: functional, organism-based, Human rhinovirus 1B; conditions: Rhinovirus A, 72 h
# [2] = system: rhinovirus B14; experiment: Antiviral activity against HRV 14 infected in human HeLa cells assessed as reduction in plaque number after 3 days by neutral red assay; type: functional, organism-based; conditions: Rhinovirus B, 72 h
# [3] = Cytotoxicity against human HeLa cells assessed as reduction in cell viability after 3 days by XTT assay; type: cell-based; conditions: for MNTC at 72 h: read-out: MNCC
# [4] = Selectivity index, ratio of CC50 for human HeLa cells to IC50 for HRV 14 infected in human HeLa cells; type: functional
# [5] = Selectivity index, ratio of CC50 for human HeLa cells to IC50 for HRV 1B infected in human HeLa cells; type: functional
# [6] = system: rhinovirus A1B; experiment: Antiviral activity against HRV 1B infected in human HeLa cells assessed as inhibition of viral yield at 43 uM treated at 1 hr after virus adsorption period measured after 10 hrs by plaque assay relative to control; type: functional, Human rhinovirus 1B; conditions: Rhinovirus A
# [7] = system: rhinovirus B14; experiment: Antiviral activity against HRV 14 infected in human HeLa cells assessed as log reduction in infectivity at 58 uM after 10 hrs by plaque assay at pH 5.0 relative to control; type: functional
# [8] = system: rhinovirus A1B; experiment: Antiviral activity against HRV 1B infected in human HeLa cells assessed as inhibition of viral yield compound treated at 43 uM during 1 hr at 4 degC followed by compound washout by plaque assay; type: functional, Human rhinovirus 1B; conditions: Rhinovirus A
# [9] = system: rhinovirus A1B; experiment: Antiviral activity against HRV 1B infected in human HeLa cells assessed as maximal reduction of viral yield at 43 uM treated 4 hrs post adsorption period measured after 10 hrs by plaque assay; type: functional, organism-based; conditions: Human rhinovirus 1B
# [10] = system: rhinovirus B14; experiment: Antiviral activity against HRV 14 infected in human HeLa cells assessed as half-maximal reduction of viral yield at 58 uM treated 1 hr post adsorption period measured after 10 hrs by plaque assay; type: functional, organism-based
# [11] = system: rhinovirus A1B; experiment: Antiviral activity against HRV 1B infected in human HeLa cells assessed as inhibition of viral yield compound treated at 43 uM prior to 1 hr incubated at 4 degC followed by 10 hrs at 33 degC infection period by plaque assay; type: functional, Human rhinovirus 1B
# [12] = system: rhinovirus B14; experiment: Antiviral activity against HRV 14 infected in human HeLa cells assessed as inhibition of viral yield compound treated at 58 uM prior to 1 hr incubated at 4 degC followed by 10 hrs at 33 degC infection period by plaque assay; type: functional
# [13] = system: rhinovirus B14; experiment: Antiviral activity against HRV 14 infected in human HeLa cells assessed as inhibition of viral yield at 58 uM treated at 1 hr after virus adsorption period measured after 10 hrs by plaque assay relative to control; type: functional; conditions: Rhinovirus B
# [14] = system: rhinovirus B14; experiment: Antiviral activity against HRV 14 infected in human HeLa cells assessed as inhibition of viral yield compound treated at 58 uM during 1 hr at 4 degC followed by compound washout by plaque assay; type: functional; conditions: Rhinovirus B
# [15] = system: rhinovirus B14; experiment: Antiviral activity against HRV 14 infected in human HeLa cells assessed as inhibition of viral yield at 58 uM treated during 10 hrs multiplication period by plaque assay relative to control; type: functional; conditions: Rhinovirus B
# [16] = system: rhinovirus B14; experiment: Antiviral activity against HRV 14 infected in human HeLa cells assessed as maximal reduction of viral yield at 58 uM treated 6 hrs post adsorption period measured after 10 hrs by plaque assay; type: functional, organism-based
# [17] = system: rhinovirus A1B; experiment: Antiviral activity against HRV 1B infected in human HeLa cells assessed as log reduction in infectivity at 43 uM after 10 hrs by plaque assay at 56 degC relative to control; type: functional, Human rhinovirus 1B
# [18] = system: rhinovirus A1B; experiment: Antiviral activity against HRV 1B infected in human HeLa cells assessed as inhibition of viral yield at 43 uM treated during 10 hrs multiplication period by plaque assay relative to control; type: functional, Human rhinovirus 1B; conditions: Rhinovirus A
# [19] = system: rhinovirus B14; experiment: Antiviral activity against HRV 14 infected in human HeLa cells assessed as inhibition of viral yield compound treated at 58 uM for 1 hr prior infection followed by compound wash-out by plaque assay; type: functional; conditions: Rhinovirus B
# [20] = system: rhinovirus A1B; experiment: Antiviral activity against HRV 1B infected in human HeLa cells assessed as reduction of viral yield at 43 uM treated 2 hrs post infection measured after 10 hrs by plaque assay; type: functional, organism-based; conditions: Human rhinovirus 1B
# [21] = system: rhinovirus A1B; experiment: Antiviral activity against HRV 1B infected in human HeLa cells assessed as half-maximal reduction of viral yield at 43 uM treated 45 mins post adsorption period measured after 10 hrs by plaque assay; type: functional, organism-based; conditions: Human rhinovirus 1B
# [22] = system: rhinovirus B14; experiment: Antiviral activity against HRV 14 infected in human HeLa cells assessed as reduction of viral yield at 58 uM treated 4 hrs post infection measured after 10 hrs by plaque assay; type: functional, organism-based
# [23] = system: rhinovirus A1B; experiment: Antiviral activity against HRV 1B infected in human HeLa cells assessed as inhibition of viral yield compound treated at 43 uM for 1 hr prior infection followed by compound wash-out by plaque assay; type: functional, Human rhinovirus 1B; conditions: Rhinovirus A
# [24] = system: rhinovirus A1B; experiment: Antiviral activity against HRV 1B infected in human HeLa cells assessed as log reduction in infectivity at 43 uM after 10 hrs by plaque assay at pH 5.0 relative to control; type: functional, Human rhinovirus 1B
# [25] = system: rhinovirus B14; experiment: Antiviral activity against HRV 14 infected in human HeLa cells assessed as log reduction in infectivity at 58 uM after 10 hrs by plaque assay at 56 degC relative to control; type: functional
# [26] = system: rhinovirus A1B; experiment: Antiviral activity against HRV 1B infected in human HeLa cells assessed as reduction in plaque number at maximum non-cytotoxic concentration after 3 days by neutral red assay; type: functional, Human rhinovirus 1B; parameters: scale not given: the % may be the effect or the level left
smiles,measurement,setting,value
O=c1c(/C=C\c2cccnc2)coc2ccccc12,pIC50,[1],4.33
same,pIC50,[2],4.81
same,CC50 at 72 h,[3],> 200 µM
same,MNTC at 72 h,[3],> 200 µM
same,Ratio CC50/IC50,[4],>12.98
same,Ratio CC50/IC50,[5],>4.28
O=c1c(/C=C/c2ccncc2)coc2ccc(Cl)cc12,pIC50,[1],4.72
same,pIC50,[2],4.81
same,CC50 at 72 h,[3],150 µM
same,MNTC at 72 h,[3],100 µM
same,Ratio CC50/IC50,[4],9.6
same,Ratio CC50/IC50,[5],7.87
O=c1c(/C=C/c2ccccn2)coc2ccccc12,pIC50,[1],5.29
same,pIC50,[2],5.15
same,CC50 at 72 h,[3],> 200 µM
same,MNTC at 72 h,[3],> 200 µM
same,Ratio CC50/IC50,[4],>28.25
same,Ratio CC50/IC50,[5],>38.84
Clc1ccc2c(c1)C=C(/C=C/c1ccccn1)CO2,pIC50,[1],5.77
same,pIC50,[2],5.05
same,CC50 at 72 h,[3],> 50 µM
same,MNTC at 72 h,[3],> 50 µM
same,Ratio CC50/IC50,[4],>5.58
same,Ratio CC50/IC50,[5],>29.59
C1=C(/C=C\c2cccnc2)COc2ccccc21,pIC50,[1],6.01
same,pIC50,[2],5.03
same,CC50 at 72 h,[3],37.5 µM
same,MNTC at 72 h,[3],25 µM
same,Ratio CC50/IC50,[4],4
same,Ratio CC50/IC50,[5],38.26
O=c1c(/C=C/c2ccccn2)coc2ccc(Cl)cc12,pIC50,[1],5.80
same,pIC50,[2],5.29
same,CC50 at 72 h,[3],> 50 µM
same,MNTC at 72 h,[3],> 50 µM
same,Ratio CC50/IC50,[4],>9.8
same,Ratio CC50/IC50,[5],>31.25
C1=C(/C=C/c2ccccn2)COc2ccccc21,pIC50,[1],5.77
same,inhibition at 43 µM,[6],90%
same,FC,[7],0.9
same,inhibition at 43 µM,[8],14%
same,Activity,[9],Active
same,Activity,[10],Active
same,inhibition (INH),[11],90%
same,inhibition (INH),[12],90%
same,inhibition at 58 µM,[13],90%
same,inhibition at 58 µM,[14],16%
same,inhibition at 58 µM,[15],90%
same,pIC50,[2],5.53
same,Activity,[16],Active
same,FC,[17],1.1
same,CC50 at 72 h,[3],> 50 µM
same,MNTC at 72 h,[3],> 50 µM
same,inhibition at 43 µM,[18],90%
same,inhibition at 58 µM,[19],1%
same,Activity,[20],inactive
same,Activity,[21],Active
same,Activity,[22],inactive
same,inhibition at 43 µM,[23],24%
same,FC,[24],1
same,Ratio CC50/IC50,[4],>17.06
same,FC,[25],0.9
same,Ratio CC50/IC50,[5],>29.41
O=c1c(/C=C\c2cccnc2)coc2ccc(Cl)cc12,pIC50,[1],5.37
same,pIC50,[2],4.99
same,CC50 at 72 h,[3],50 µM
same,MNTC at 72 h,[3],25 µM
same,Ratio CC50/IC50,[4],4.94
same,Ratio CC50/IC50,[5],11.74
C1=C(/C=C/c2ccncc2)COc2ccccc21,pIC50,[1],5.71
same,pIC50,[2],5.52
same,CC50 at 72 h,[3],75 µM
same,MNTC at 72 h,[3],50 µM
same,Ratio CC50/IC50,[4],24.75
same,Ratio CC50/IC50,[5],38.26
Clc1ccc2c(c1)C=C(/C=C/c1cccnc1)CO2,pIC50,[1],5.36
same,pIC50,[2],5.37
same,CC50 at 72 h,[3],37.5 µM
same,MNTC at 72 h,[3],25 µM
same,Ratio CC50/IC50,[4],8.78
same,Ratio CC50/IC50,[5],8.64
O=c1c(/C=C/c2ccncc2)coc2ccccc12,pIC50,[1],< 4.00
same,Activity,[26],22%
same,pIC50,[2],4.04
same,CC50 at 72 h,[3],> 100 µM
same,MNTC at 72 h,[3],> 100 µM
same,Ratio CC50/IC50,[4],>1.08
C1=C(/C=C/c2cccnc2)COc2ccccc21,pIC50,[1],5.34
same,pIC50,[2],5.41
same,CC50 at 72 h,[3],75 µM
same,MNTC at 72 h,[3],25 µM
same,Ratio CC50/IC50,[4],19.33
same,Ratio CC50/IC50,[5],16.41
Clc1ccc2c(c1)C=C(/C=C/c1ccncc1)CO2,pIC50,[1],5.32
same,pIC50,[2],5.17
same,CC50 at 72 h,[3],75 µM
same,MNTC at 72 h,[3],50 µM
same,Ratio CC50/IC50,[4],11.17
same,Ratio CC50/IC50,[5],15.82
C1=C(/C=C\c2ccncc2)COc2ccccc21,pIC50,[1],6.15
same,pIC50,[2],5.54
same,CC50 at 72 h,[3],50 µM
same,MNTC at 72 h,[3],25 µM
same,Ratio CC50/IC50,[4],17.24
same,Ratio CC50/IC50,[5],70.42
